Measurements as given in ChEMBL document CHEMBL1129724, “Inhibitory potency of lithocholic acid analogs and other bile acids on glucuronosyltransferase activity in a colon cancer cell line” (Bioorg Med Chem Lett, 1996).

Tested on: HT-29
Assay: Inhibition of glucuronosyltransferase activity in the human colon cancer cell line HT-29 at 5 uM concentration
Assay type: cell-based
Set-up: scale not given: the % may be the effect or the level left

Row | Compound | Activity [%]
1 | CC(CCCO)[C@H]1CC[C@H]2[C@@H]3CC[C@@H]4C[C@H](O)CC[C@]4(C)[C@H]3CC[C@]12C (some centres not stated) | 72.8
2 | CC(CCC(=O)O)C1CCC2C3C=CC4C[C@H](O)CCC4(C)C3CCC12C (some centres not stated) | 41.4
3 | C[C@H](CCC(=O)O)[C@H]1CC[C@H]2[C@@H]3[C@H](O)C[C@@H]4C[C@H](O)CC[C@]4(C)[C@H]3CC[C@]12C | 38.4
4 | CC(CCCCC(=O)O)[C@H]1CC[C@H]2[C@@H]3CC[C@@H]4C[C@H](O)CC[C@]4(C)[C@H]3CC[C@]12C (some centres not stated) | 41.9
5 | CC(CCC(=O)O)[C@H]1CC[C@H]2[C@@H]3CC[C@@H]4CC(=O)CC[C@]4(C)[C@H]3CC[C@]12C (some centres not stated) | 46
6 | C[C@H](CCC(=O)O)[C@H]1CC[C@H]2[C@@H]3CC[C@@H]4CCCC[C@]4(C)[C@H]3CC[C@]12C | 92
7 | CC(CCCOP(=O)(O)O)[C@H]1CC[C@H]2[C@@H]3CC[C@@H]4C[C@H](O)CC[C@]4(C)[C@H]3CC[C@]12C (some centres not stated) | 74
8 | C[C@@H](CCC(=O)O)[C@H]1CC[C@H]2[C@@H]3[C@H](O)[C@@H](O)[C@@H]4C[C@H](O)CC[C@]4(C)[C@H]3CC[C@]12C | 100
9 | CC(CCC(=O)O)[C@H]1CC[C@H]2[C@@H]3CC(=O)[C@@H]4C[C@H](O)CC[C@]4(C)[C@H]3CC[C@]12C (some centres not stated) | 28.1
10 | CC(CCC(=O)O)[C@H]1CC[C@H]2[C@@H]3CC[C@@H]4C[C@@H](O)CC[C@]4(C)[C@H]3C[C@@H](O)[C@]12C (some centres not stated) | 46.4
11 | C[C@H](CCC(=O)O)[C@H]1CC[C@H]2[C@@H]3[C@@H](O)C[C@@H]4C[C@H](O)CC[C@]4(C)[C@H]3CC[C@]12C | 73.3
12 | CC(CCC(=O)O)[C@H]1CC[C@H]2[C@@H]3C(=O)C[C@@H]4C[C@H](O)CC[C@]4(C)[C@H]3CC[C@]12C (some centres not stated) | 51.1
13 | CC(CC(O)C(=O)O)[C@H]1CC[C@H]2[C@@H]3CC[C@@H]4C[C@H](O)CC[C@]4(C)[C@H]3CC[C@]12C (mixture of isomers) | 40
14 | CC(CC(O)C(=O)O)[C@H]1CC[C@H]2[C@@H]3CC[C@@H]4C[C@H](O)CC[C@]4(C)[C@H]3CC[C@]12C (single isomer, unassigned) | 55.4
15 | CC(CCC(=O)O)[C@H]1CC[C@H]2[C@@H]3[C@H](O)C[C@@H]4C[C@H](O)CC[C@]4(C)[C@H]3C[C@@H](O)[C@]12C (some centres not stated) | 98.3
16 | C[C@H](CCC(=O)O)[C@H]1CC[C@H]2[C@@H]3CC[C@@H]4C[C@H](O)CC[C@]4(C)[C@H]3CC[C@]12C | 25.3
17 | CC(CCC(=O)O)[C@H]1CC[C@H]2[C@@H]3C(=O)C[C@@H]4C[C@H](O)CC[C@]4(C)[C@H]3CC(=O)[C@]12C (some centres not stated) | 100
18 | CC(CCC(=O)O)[C@H]1CC[C@H]2[C@@H]3CC[C@@H]4C[C@@H](O)CC[C@]4(C)[C@H]3CC[C@]12C (some centres not stated) | 86.9
19 | C[C@H](CCC(=O)O)[C@H]1CC[C@H]2[C@@H]3CC[C@@H]4C[C@H](O)CCC4(C)[C@H]3CC(O)[C@]12C (single isomer, unassigned) | 48
20 | CC(CC(O)C(=O)O)[C@H]1CC[C@H]2[C@@H]3CC[C@@H]4C[C@H](O)CC[C@]4(C)[C@H]3CC[C@]12C (stereo in doubt) | 34.9
21 | CC(CCC(=O)O)[C@H]1CC[C@H]2[C@@H]3[C@@H](O)[C@H](O)[C@@H]4C[C@H](O)CC[C@]4(C)[C@H]3CC[C@]12C (some centres not stated) | 78.5
22 | CC(CCC(=O)O)C1CCC2C3C=CC4C[C@@H](O)CCC4(C)C3CCC12C (some centres not stated) | 39.1
23 | CC(CCC(=O)O)[C@H]1CC[C@H]2[C@@H]3[C@H](O)[C@H](O)[C@@H]4C[C@H](O)CC[C@]4(C)[C@H]3CC[C@]12C (some centres not stated) | 73.9
24 | C[C@H](CCC(=O)O)[C@H]1CC[C@H]2[C@@H]3CC(O)[C@@H]4C[C@H](O)CC[C@]4(C)[C@H]3CC[C@]12C (single isomer, unassigned) | 75.2
25 | CC(CCC(C(=O)O)C(=O)O)[C@H]1CC[C@H]2[C@@H]3CC[C@@H]4C[C@H](O)CC[C@]4(C)[C@H]3CC[C@]12C (some centres not stated) | 74.3
26 | CC(CCC(=O)O)[C@H]1CC[C@H]2[C@@H]3CC[C@@H]4C[C@H](O)CC[C@]4(C)[C@H]3CC(=O)[C@]12C (some centres not stated) | 36.1
27 | C[C@H](CCC(=O)O)[C@H]1CC[C@H]2[C@@H]3CCC4CC(O)CC[C@]4(C)[C@H]3CC[C@]12C (single isomer, unassigned) | 46.8
